Assay results from the Kinase Knowledgebase extract (Sharma et al. 2016).

Biological target: MAPK14 (human) (UniProt Q16539)
Assay: Inhibition of MAPK14 Kinase Activity
Settings: Monocyte

Chain of MAPK14 (human) (Q16539 whole entry, looked up): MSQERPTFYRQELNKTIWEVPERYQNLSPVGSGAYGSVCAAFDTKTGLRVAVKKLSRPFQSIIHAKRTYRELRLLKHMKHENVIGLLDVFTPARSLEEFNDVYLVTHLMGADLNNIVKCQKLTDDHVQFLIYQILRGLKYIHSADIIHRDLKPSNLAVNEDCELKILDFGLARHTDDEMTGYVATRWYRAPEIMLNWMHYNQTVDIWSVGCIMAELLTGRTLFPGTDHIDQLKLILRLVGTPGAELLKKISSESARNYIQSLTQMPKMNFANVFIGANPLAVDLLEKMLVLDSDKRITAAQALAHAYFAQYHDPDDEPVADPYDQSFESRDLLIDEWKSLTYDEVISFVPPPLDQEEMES

Row | IC50 [nM] | Structure (SMILES)
1 | < 1000 | Cc1cc(OCc2ccc(F)cc2F)c(Br)c(=O)n1-c1ccc(CNC(=O)C(C)(C)O)cc1
2 | < 1000 | Cc1cc(OCc2ccc(F)cc2F)c(Br)c(=O)n1Cc1cnc(N(C)C)nc1
3 | < 1000 | CNCC(=O)NCc1ccc(Cn2c(C)cc(OCc3ccc(F)cc3F)c(Br)c2=O)cc1
4 | < 1000 | Cc1cc(OCc2ccc(F)cc2F)c(Br)c(=O)n1Cc1cnc(CNC(=O)CN)nc1
5 | < 1000 | Cc1ccc(C(N)=O)cc1-n1c(C)cc(OCc2ccc(F)cc2F)c(Br)c1=O
6 | < 1000 | Cc1cc(OCc2ccc(F)cc2F)c(Br)c(=O)n1Cc1ccc(C(=O)N2CCOCC2)o1
7 | 1000 to 25000 | Cc1cc(OCc2ccc(F)cc2F)c(Br)c(=O)n1Cc1ccc(C(=O)NCCO)o1
8 | < 1000 | Cc1cc(OCc2ccc(F)cc2F)c(Br)c(=O)n1Cc1cc[nH]n1

Continued, compound first:

Row | Structure (SMILES) | IC50 [nM]
9 | Cc1cc(OCc2ccc(F)cc2F)c(Br)c(=O)n1-c1c(F)cc(/C=C/CO)cc1F | < 1000
10 | Cc1cc(OCc2ccc(F)cc2F)c(Br)c(=O)n1-c1ccc(C(=O)N(C)C)cc1C(F)(F)F | 1000 to 25000
11 | Cc1cc(OCc2ccc(F)cc2F)c(Br)c(=O)n1-c1c(F)cc(C(O)COC(N)=O)cc1F (stereo not given) | < 1000
12 | CNC(=O)c1ccc(C(C)n2c(C)cc(OCc3ccc(F)cc3F)c(Br)c2=O)cc1 (stereo not given) | 1000 to 25000
13 | Cc1ccc(C(N)=O)cc1-n1c(C)cc(OCc2ccc(F)cc2CNC(=O)NC2CC2)c(Cl)c1=O | < 1000
14 | Cc1cc(OCc2ccc(F)cc2F)c(Cl)c(=O)n1Cc1ccc2c(c1)CN(C(=O)C(C)(C)O)C2 | < 1000
15 | Cc1cc(OCc2ccc(F)cc2C(N)=O)c(Br)c(=O)n1-c1c(F)cccc1F | 25000 to 100000
